Reference: ChEMBL document CHEMBL5715935 (Int J Cancer, 2002)
The source made the active and inactive calls. The calls are words filed in the database; no cut-off is given here.

How the values were obtained:
[1] = system: LoVo; test: Induction of cell death in human LoVo cells assessed as G2/M phase of the cell cycle at 20 uM incubated for 24 hrs by TUNEL staining based flow cytometry analysis; type: functional
[2] = system: HepG2; test: Cytotoxicity against p53 wild-type human HepG2 cells assessed as inhibition of cell proliferation incubated for 72 hrs by MTT assay; type: functional, cell-based; details: HepG2, 72 h
[3] = system: MES-SA/Dx5; test: Antitumor activity against human MES-SA/Dx5 cells xenografted CD1 nude mouse assessed as time for tumor growth delay at 200 mg/kg, po administered 3 times per day at 8 hrs intervals for 10 days; type: functional; details: time 10 day
[4] = system: NCI-H69; test: Cytotoxicity against p53 mutant human NCI-H69 cells assessed as inhibition of cell proliferation incubated for 72 hrs by MTT assay; type: functional, cell-based; details: NCI-H69, 72 h
[5] = system: LoVo; test: Antitumor activity against human Lovo cells xenografted CD1 nude mouse assessed as reduction in tumor volume at 100 mg/kg, ip administered 3 times per day at 8 hrs intervals for 5 days relative to control; type: functional; design: scale not given: the % may be the effect or the level left; details: time 5 day
[6] = system: LoVo; test: Induction of cell death in human LoVo cells assessed as increase in total cell numbers at 20 uM incubated upto 24 hrs by TUNEL staining based flow cytometry analysis; type: functional
[7] = system: MES-SA/Dx5; test: Antitumor activity against human MES-SA/Dx5 cells xenografted CD1 nude mouse assessed as T/C ratio at 500 mg/kg, po administered 3 times per day at 8 hrs intervals and measured at 11 day relative to control; type: functional
[8] = system: MIA PaCa-2; test: Cytotoxicity against p53 mutant human MIA PaCa-2 cells assessed as inhibition of cell proliferation incubated for 72 hrs by MTT assay; type: functional, cell-based; details: MIA PaCa-2, 72 h
[9] = system: LoVo; test: Induction of cell death in human LoVo cells assessed as decrease in total cell numbers at 20 uM incubated for 48 hrs by TUNEL staining based flow cytometry analysis; type: functional
[10] = system: MES-SA/Dx5; test: Antitumor activity against human MES-SA/Dx5 cells xenografted CD1 nude mouse assessed as T/C ratio at 200 mg/kg, po administered 3 times per day at 8 hrs intervals for 10 days and measured at day 11 relative to control; type: functional; details: time 11 day
[11] = Cytotoxicity against human HS27 cells assessed as inhibition of cell proliferation incubated for 72 hrs by MTT assay; type: toxicity, cell-based
[12] = system: NCI-H460; test: Cytotoxicity against p53 wild-type human NCI-H460 cells assessed as inhibition of cell proliferation incubated for 72 hrs by MTT assay; type: functional, cell-based; details: NCI-H460, 72 h
[13] = system: MES-SA/Dx5; test: Antitumor activity against human MES-SA/Dx5 cells xenografted CD1 nude mouse assessed as tumor volume at 500 mg/kg, po administered 3 times per day at 8 hrs intervals and measured on 7 day; type: functional, organism-based
[14] = system: A549; test: Cytotoxicity against p53 wild-type human A549 cells assessed as inhibition of cell proliferation incubated for 72 hrs by MTT assay; type: functional, cell-based; details: A549, 72 h
[15] = system: MES-SA/Dx5; test: Antitumor activity against human MES-SA/Dx5 cells xenografted CD1 nude mouse assessed as tumor volume at 500 mg/kg, po administered 3 times per day at 8 hrs intervals and measured on 4 day; type: functional, organism-based
[16] = system: ACHN; test: Cytotoxicity against p53 wild-type human ACHN cells assessed as inhibition of cell proliferation incubated for 72 hrs by MTT assay; type: functional, cell-based
[17] = system: LoVo; test: Induction of cell death in human LoVo cells assessed as G1 phase of the cell cycle at 20 uM incubated for 24 hrs by TUNEL staining based flow cytometry analysis; type: functional
[18] = system: LoVo; test: Cytotoxicity against p53 wild-type human LoVo cells assessed as inhibition of cell proliferation incubated for 72 hrs by MTT assay; type: functional, cell-based
[19] = system: MES-SA/Dx5; test: Antitumor activity against human MES-SA/Dx5 cells xenografted CD1 nude mouse assessed as time for tumor growth delay at 500 mg/kg, po administered 3 times per day at 8 hrs intervals for 4 days; type: functional; details: time 4 day
[20] = target: Mitogen-activated protein kinase 14 (Homo sapiens) (UniProt Q16539); test: Inhibition of human SAPK2A using myelin as substrate at 20 uM in presence of gamma-32P-ATP by scintillation counter analysis
Sequence of Mitogen-activated protein kinase 14 (Homo sapiens) (Q16539 whole entry): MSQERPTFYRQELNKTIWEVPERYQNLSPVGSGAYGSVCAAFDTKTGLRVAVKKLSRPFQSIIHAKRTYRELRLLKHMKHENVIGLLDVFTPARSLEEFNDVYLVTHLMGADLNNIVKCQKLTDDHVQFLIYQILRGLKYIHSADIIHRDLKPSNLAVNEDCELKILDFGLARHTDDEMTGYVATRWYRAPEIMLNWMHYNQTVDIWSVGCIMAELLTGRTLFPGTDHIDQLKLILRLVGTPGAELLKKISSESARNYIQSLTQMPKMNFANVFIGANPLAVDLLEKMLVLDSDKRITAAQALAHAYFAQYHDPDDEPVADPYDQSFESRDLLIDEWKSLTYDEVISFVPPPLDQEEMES

[21] = system: MIA PaCa-2; test: Cytotoxicity against human MIA PaCa-2 cells assessed as inhibition of cell proliferation incubated for 72 hrs by MTT assay; type: functional, cell-based; details: MIA PaCa-2, 72 h
[22] = system: HT-29; test: Cytotoxicity against p53 mutant human HT-29 cells assessed as inhibition of cell proliferation incubated for 72 hrs by MTT assay; type: functional, cell-based; details: HT-29, 72 h
[23] = system: MES-SA/Dx5; test: Antitumor activity against human MES-SA/Dx5 cells xenografted CD1 nude mouse assessed as tumor volume at 500 mg/kg, po administered 3 times per day at 8 hrs intervals and measured on 11 day; type: functional, organism-based
[24] = system: LoVo; test: Antitumor activity against human Lovo cells xenografted CD1 nude mouse assessed as T/C ratio at 100 mg/kg, ip administered 3 times per day at 8 hrs intervals for 5 days relative to control; type: functional; details: time 5 day
[25] = system: LoVo; test: Induction of cell death in human LoVo cells assessed as sub-G1 phase of the cell cycle at 20 uM incubated for 24 hrs by TUNEL staining based flow cytometry analysis; type: functional
[26] = system: LoVo; test: Antitumor activity against human Lovo cells xenografted CD1 nude mouse assessed as relative tumor volume at 100 mg/kg, ip administered 3 times per day at 8 hrs intervals for 5 days; type: functional; details: time 5 day
[27] = system: LoVo; test: Induction of cell death in human LoVo cells assessed as total cell numbers at 20 uM incubated after 8 hrs by TUNEL staining based flow cytometry analysis; type: functional
[28] = system: LoVo; test: Antitumor activity against human Lovo cells xenografted CD1 nude mouse assessed as low tumor volume at 100 mg/kg, ip administered 3 times per day at 8 hrs intervals for 19 days; type: functional, organism-based; details: time 19.0 day
[29] = system: MIA PaCa-2; test: Cytotoxicity against p53 wild-type human MIA PaCa-2 cells assessed as inhibition of cell proliferation incubated for 72 hrs by MTT assay; type: functional, cell-based; details: MIA PaCa-2, 72 h
[30] = system: LoVo; test: Antitumor activity against human Lovo cells xenografted CD1 nude mouse assessed as low tumor volume at 100 mg/kg, ip administered 3 times per day at 8 hrs intervals for 24 days; type: functional, organism-based; details: time 24.0 day
[31] = system: LoVo; test: Antitumor activity against human Lovo cells xenografted CD1 nude mouse assessed as time for tumor growth delay at 100 mg/kg, ip administered 3 times per day at 8 hrs intervals for 5 days; type: functional; details: time 5 day
[32] = system: HCT-15; test: Cytotoxicity against p53 mutant human HCT-15 cells assessed as inhibition of cell proliferation incubated for 72 hrs by MTT assay; type: functional, cell-based; details: HCT-15, 72 h
[33] = system: HT-1376; test: Cytotoxicity against p53 mutant human HT-1376 cells assessed as inhibition of cell proliferation incubated for 72 hrs by MTT assay; type: functional, cell-based; details: HT-1376, 72 h
[34] = target: cAMP-dependent protein kinase (PKA) (Homo sapiens) (UniProt P22694+P17612+P22612); test: Inhibition of human PKA at 20 uM; type: protein assay
[35] = system: MES-SA/Dx5; test: Cytotoxicity against human MES-SA/Dx5 cells assessed as inhibition of cell proliferation incubated for 72 hrs by MTT assay; type: functional, cell-based; details: MES-SA/Dx5, 72 h
[36] = system: DU-145; test: Cytotoxicity against p53 mutant human DU-145 cells assessed as inhibition of cell proliferation incubated for 72 hrs by MTT assay; type: functional, cell-based; details: DU-145, 72 h
[37] = system: LoVo; test: Induction of cell death in human LoVo cells assessed as S phase of the cell cycle at 20 uM incubated for 24 hrs by TUNEL staining based flow cytometry analysis; type: functional
[38] = target: Protein kinase C (PKC) (Homo sapiens) (UniProt O94806+P41743+P17252+P05129+Q05655+P05771+Q05513+Q02156+P24723+Q15139+Q04759); test: Inhibition of human PKC at 20 uM; type: protein assay
[39] = system: LoVo; test: Induction of cell death in human LoVo cells assessed as increase in the number of cells with a sub-G1 DNA content at 20 uM incubated for 24 hrs by PI staining based flow cytometry analysis; type: functional
[40] = system: LoVo; test: Antitumor activity against human Lovo cells xenografted CD1 nude mouse assessed as low tumor volume at 100 mg/kg, ip administered 3 times per day at 8 hrs intervals for 32 days; type: functional, organism-based; details: time 32.0 day
[41] = system: LoVo; test: Induction of cell death in human LoVo cells assessed as accumulation of cells in the cell cycle at 20 uM incubated for 24 hrs by PI staining based flow cytometry analysis; type: functional
[42] = system: LoVo; test: Antitumor activity against human Lovo cells xenografted CD1 nude mouse assessed as low tumor volume at 100 mg/kg, ip administered 3 times per day at 8 hrs intervals for 16 days; type: functional, organism-based; details: time 16.0 day
[43] = system: ChaGo-K-1; test: Cytotoxicity against human ChaGo-K-1 cells assessed as inhibition of cell proliferation incubated for 72 hrs by MTT assay; type: functional, cell-based; details: ChaGo-K-1, 72 h
[44] = system: MES-SA/Dx5; test: Antitumor activity against human MES-SA/Dx5 cells xenografted CD1 nude mouse assessed as reduction in tumor volume at 200 mg/kg, po administered 3 times per day at 8 hrs intervals and measured upto 16 days; type: functional, organism-based; details: time <= 16.0 day
[45] = Cytotoxicity against human IMR-90 cells assessed as inhibition of cell proliferation incubated for 72 hrs by MTT assay; type: toxicity, cell-based
[46] = system: A498; test: Cytotoxicity against p53 wild-type human A498 cells assessed as inhibition of cell proliferation incubated for 72 hrs by MTT assay; type: functional, cell-based; details: A498, 72 h
[47] = system: MES-SA; test: Cytotoxicity against human MES-SA cells assessed as inhibition of cell proliferation incubated for 72 hrs by MTT assay; type: functional, cell-based
[48] = system: HCT-116; test: cells; details: Homo sapiens, HCT-116, 72 h

## CC[C@H](CO)Nc1nc(NCc2ccccc2)c2ncn(C(C)C)c2n1 [SELICICLIB]
[1]
  Activity: Active
[2]
  IC50: 11.3 µM
[3]
  Time: 1.3 days
[4]
  IC50: 26 µM
[5]
  Activity: 44.8%
[6]
  Activity: Active
[7]
  T/C: 47.3%
[8]
  IC50: 13.9 µM
[9]
  Activity: Active
[10]
  Activity: 85.7%
[11]
  IC50 at 72 h: 22.2 µM
[12]
  IC50: 13.1 µM
[13]
  Activity: Active
[14]
  IC50: 15.9 µM
[15]
  Activity: Active
[16]
  IC50: 11.9 µM
[17]
  Activity: Active
[18]
  IC50: 9.3 µM
[19]
  Time: 1.7 days
[20]
  inhibition: inactive
[21]
  IC50: 15.2 µM
[22]
  IC50: 14.6 µM
[23]
  Activity: Active
[24]
  T/C: 58.3%
[25]
  Activity: Active
[26]
  Activity: 4.8
[27]
  Activity: Active
[28]
  Activity: Active
[29]
  IC50: 12 µM
[30]
  Activity: Active
[31]
  Time: 1.4 days
[32]
  IC50: 18.3 µM
[33]
  IC50: 18.4 µM
[34]
  inhibition: inactive
[35]
  IC50: 7.9 µM
[36]
  IC50: 18.8 µM
[37]
  Activity: Active
[38]
  inhibition: inactive
[39]
  Activity: Active
[40]
  Activity: Active
[41]
  Activity: inactive
[42]
  Activity: Active
[43]
  IC50: 30.2 µM
[44]
  Activity: inactive
[45]
  IC50 at 72 h: > 100 µM
[46]
  IC50: 13.2 µM
[47]
  IC50: 11.9 µM
[48]
  IC50: 10.7 µM
